Experimental data reported in patent publication US10232009B1, “Peptide for promoting wound healing, its composition and method of using the same” (PRO SUNFUN BIOTECH RESEARCH AND DEVELOPMENT CO., LTD., priority 2017, dated 2019).
“Also recorded” adds a separate entry of the source. Ends that are not written are not given here.

Columns and labels:
Format in all cases: cell-based, Human
HaCaT cells = assay: Transwell migration assay, HaCaT keratinocyte cells; conditions: 50 μg/ml peptide, 24-hour culture, P<0.05
Description: (§1) Human keratinocyte HaCaT and skin fibroblast CCD-966SK cells were cultured in Dulbecco's Modified Eagle Medium (DMEM) containing 10% (v/v) FBS and 1% (v/v) antibiotics in 5% CO2 at 37° C.
(§2) HaCaT cells (5×10^4) or CCD-966SK cells (5×10^3) in 0.25 ml serum-free DMEM were seeded into the upper chamber with an 8-μm pore size membrane (Corning, USA) and 0.5 ml serum free DMEM with or without 50 μg/ml Peptide NO. 9 were loaded to the lower chamber in 24-well culture plate. After 24 hours incubation, cells were fixed and stained with 0.5% (w/v) crystal violet (Sigma) containing 20% (v/v) methanol. The number of migrated cells from 5 random fields was counted under the microscope. Results obtained were analyzed by student's t-test and graphed as mean±SD.

HaCaT keratinocyte cells = assay: MTT assay, viability of HaCaT keratinocyte cells; conditions: 50 μg/ml peptide
Description: as §1
(§3) HaCaT keratinocyte cells (3×10^3, each cell line) in 100 μl complete DMEM were seeded in 96-well plates with or without 50 μg/ml Peptide NO. 9, respectively. Ten microliters of 5 mg/ml 3-(4,5-dimethyl-2-thiazolyl)-2,5-diphenyl-2H-tetrazolium bromide solution (MTT; Sigma) was added to each well for the indicated times and incubated at 37° C. for 3 hours, after which 100 μl 10% SDS in 0.01 N HCl was added to dissolve the MTT formazan crystals. The resultant optical density was measured spectrophotometrically at dual wavelengths, 550 and 630 nm.

CCD966SK cells = assay: MTT assay, viability of CCD966SK cells; conditions: 50 μg/ml peptide
Description: as §1, §3

CCD-966SK cells = assay: Transwell migration assay, CCD-966SK fibroblast cells; conditions: 50 μg/ml peptide, 24-hour culture, P<0.01
Description: as §1, §2

HTSTEAK [Peptide NO. 9]
HaCaT keratinocyte cell migration (HaCaT cells): enhanced HaCaT keratinocyte cell migration; also recorded: significant efficacy in enhancing HaCaT keratinocyte cell migration; also recorded: effect in enhancement of keratinocyte cell migration of HaCaT cells | viability of HaCaT keratinocyte cells (HaCaT keratinocyte cells; 24-hour culture): did not significantly affect viability of HaCaT cells | viability of HaCaT keratinocyte cells (HaCaT keratinocyte cells; 48-hour culture): did not significantly affect viability of HaCaT cells | viability of HaCaT keratinocyte cells (HaCaT keratinocyte cells; 72-hour culture): did not significantly affect viability of HaCaT cells | viability of CCD966SK cells (CCD966SK cells; 24 hours): did not significantly affect viability of CCD966SK cells | viability of CCD966SK cells (CCD966SK cells; 48 hours): did not significantly affect viability of CCD966SK cells | viability of CCD966SK cells (CCD966SK cells; 72 hours): did not significantly affect viability of CCD966SK cells | CCD966SK fibroblast cell migration (CCD-966SK cells): enhanced CCD966SK fibroblast cell migration; also recorded: significant efficacy in enhancing HaCaT CCD966SK fibroblast cell migration
